In patent US20130310374A1, “Substituted Imidazoquinoline Derivatives” (PIRAMAL ENTERPRISES LIMITED`, priority 2010, published 2013):

Columns and labels:
K562 = test: Cytotoxicity propidium iodide assay, K562; type: cell-based; settings: Homo sapiens; K562 (CML), 48 hours treatment; read-out: IC50 Values in μM, C6a
Protocol: (§1) The assay was designed as in the reference, Anticancer Drugs, 2002, 13, 1-8, the disclosure of which is incorporated herein by reference for the teaching of the assay.
(§2) Cells from cell lines (ATCC) as mentioned in the table given below were seeded at a density of 3000 cells/well in a white opaque 96-well plate. Following incubation at 37° C./5% CO2 for a period of 18-24 hours, the cells were treated with various concentrations (stock solution was prepared in DMSO and subsequent dilutions were made in media as per ATCC guidelines) of the compounds of the present invention for a period of 48 hours. At the end of treatment, the culture medium was discarded, the cells were washed with 1×PBS and 200 μL of […] propidium iodide was added to each well. The plates were frozen at 70° C. overnight. For analysis, the plates were warmed to RT, allowed to thaw and were read in PoleStar fluorimeter with the fluorescence setting. The percentage of viable cells in the non-treated set of wells was considered to be 100 and the percentage viability following treatment was calculated accordingly. IC50 values were calculated from graphs plotted using these percentages. IC50 values for certain compounds of present invention are depicted in Table 1 and % Inhibition of certain compounds of present invention are depicted in Table 2.

BT 549 = test: Cytotoxicity propidium iodide assay, BT 549; type: cell-based; settings: Homo sapiens; BT 549 (breast), 48 hours treatment; read-out: IC50 Values in μM, C3c
Protocol: as §1, §2

PANC 1 = test: Cytotoxicity propidium iodide assay, PANC 1; type: cell-based; settings: Homo sapiens; PANC 1 (pancreatic), 48 hours treatment; read-out: IC50 Values in μM, C4a
Protocol: as §1, §2

KU812/SR = test: Cytotoxicity propidium iodide assay, KU812/SR; type: cell-based; settings: Homo sapiens; KU812/SR (CML), 48 hours treatment; read-out: IC50 Values in μM, C6c
Protocol: as §1, §2

BxPC3 = test: Cytotoxicity propidium iodide assay, BxPC3; type: cell-based; settings: Homo sapiens, BXPC-3; BxPC3 (pancreatic), 48 hours treatment; read-out: IC50 Values in μM, C4c
Protocol: as §1, §2

AsPC 1 = test: Cytotoxicity propidium iodide assay, AsPC 1; type: cell-based; settings: Homo sapiens, ASPC1; AsPC 1 (pancreatic), 48 hours treatment; read-out: IC50 Values in μM, C4b
Protocol: as §1
as §2, with “The plates were frozen at 70° C. overnight.” left out

MDA MB 468 = test: Cytotoxicity propidium iodide assay, MDA MB 468; type: cell-based; settings: Homo sapiens; MDA MB 468 (breast), 48 hours treatment; read-out: IC50 Values in μM, C3b
Protocol: as §1, §2

PC3 = test: Cytotoxicity propidium iodide assay, PC3; type: cell-based, human; settings: Homo sapiens, PC-3; PC3 (prostate), 48 hours treatment; read-out: IC50 Values in μM, C2a
Outline: (§3)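 Compound exposure lasted 48 h at multiple concentrations, after an 18-24 h settling period at 37° C. with 5% CO2. Washed cells received propidium iodide ([…]) and went through an overnight freeze and thaw before fluorimetric reading; IC50 values came from percentages relative to non-treated cells.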

KCL22/SR = test: Cytotoxicity propidium iodide assay, KCL22/SR; type: cell-based; settings: Homo sapiens, KCL-22; KCL22/SR (CML), 48 hours treatment; read-out: IC50 Values in μM, C6e
Protocol: as §1, §2

KCL22 = test: Cytotoxicity propidium iodide assay, KCL22; type: cell-based; settings: Homo sapiens, KCL-22; KCL22 (CML), 48 hours treatment; read-out: IC50 Values in μM, C6f
Protocol: as §1
as §2, with “The plates were frozen at 70° C. overnight.” left out

MDA MB 231 = test: Cytotoxicity propidium iodide assay, MDA MB 231; type: cell-based; settings: Homo sapiens; MDA MB 231 (breast), 48 hours treatment; read-out: IC50 Values in μM, C3a
Protocol: as §1
as §2, with “The plates were frozen at 70° C. overnight.” left out

KU812 = test: Cytotoxicity propidium iodide assay, KU812; type: cell-based; settings: Homo sapiens; KU812 (CML), 48 hours treatment; read-out: IC50 Values in μM, C6d
Protocol: as §1, §2

A2780 = test: Cytotoxicity propidium iodide assay, A2780; type: cell-based; settings: Homo sapiens; A2780 (ovarian), 48 hours treatment; read-out: IC50 Values in μM, C1a
Outline: as §3

T315I = test: Cytotoxicity propidium iodide assay, T315I; type: cell-based; settings: T315I (CML), 48 hours treatment; read-out: IC50 Values in μM, C6b
Protocol: as §1, §2

MCF7 = test: Cytotoxicity propidium iodide assay, MCF7; type: cell-based; settings: Homo sapiens; MCF7 (breast), 48 hours treatment; read-out: IC50 Values in μM, C3d
Protocol: as §1, §2

| SMILES | IC50 (K562) [µM] | IC50 (BT 549) [µM] | IC50 (PANC 1) [µM] | IC50 (KU812/SR) [µM] | IC50 (BxPC3) [µM] | IC50 (AsPC 1) [µM] | IC50 (MDA MB 468) [µM] | IC50 (PC3) [µM] | IC50 (KCL22/SR) [µM] | IC50 (KCL22) [µM] | IC50 (MDA MB 231) [µM] | IC50 (KU812) [µM] | IC50 (A2780) [µM] | IC50 (T315I) [µM] | IC50 (MCF7) [µM] |
| --- | --- | --- | --- | --- | --- | --- | --- | --- | --- | --- | --- | --- | --- | --- | --- |
| Cn1c(=O)n(CCN2CCOCC2)c2c3cc(-c4cnc5ccccc5c4)ccc3ncc21 [Example 70, 3-Methyl-1-(2-morpholinoethyl)-8-(quinolin-3-yl)-1H-imidazo[4,5-c]quinolin-2(3H)-one] | 0.7 | 2.1 | 1 | 3.38 | 0.7 | 1.6 | 1.1 | 0.9 | 1.57 | 2.17 | 0.7 | 4 | 0.3 | 2.56 | 0.7 |
| COc1ccc(-n2c(=O)n(C)c3cnc4ccc(-c5cnc6ccccc6c5)cc4c32)cn1 [Example 20, 1-(6-Methoxypyridin-3-yl)-3-methyl-8-(quinolin-3-yl)-1H-imidazo[4,5-c]quinolin-2(3H)-one] | 0.1 | 1 | 0.25 | 5.44 | 0.45 | 0.4 | 0.47 | 0.27 | 1.09 | 2.86 | 0.37 | 1.99 | 0.07 | 1.96 | 0.55 |
